Holding throughout (assay): Kinase panel profiling at 1 µmol/L (MSA or IMAP), percentage inhibition
What all share (assay type): biochemical

Assay [1] deals with panel of 255 wild-type kinases (Homo sapiens, UniProt Q9Y6E0). Particulars: read-out: %-inhibition, MST3.
Assay [2] deals with T1, panel of 255 wild-type kinases (Homo sapiens, UniProt P29320).
T1 sequence (P29320 21-983): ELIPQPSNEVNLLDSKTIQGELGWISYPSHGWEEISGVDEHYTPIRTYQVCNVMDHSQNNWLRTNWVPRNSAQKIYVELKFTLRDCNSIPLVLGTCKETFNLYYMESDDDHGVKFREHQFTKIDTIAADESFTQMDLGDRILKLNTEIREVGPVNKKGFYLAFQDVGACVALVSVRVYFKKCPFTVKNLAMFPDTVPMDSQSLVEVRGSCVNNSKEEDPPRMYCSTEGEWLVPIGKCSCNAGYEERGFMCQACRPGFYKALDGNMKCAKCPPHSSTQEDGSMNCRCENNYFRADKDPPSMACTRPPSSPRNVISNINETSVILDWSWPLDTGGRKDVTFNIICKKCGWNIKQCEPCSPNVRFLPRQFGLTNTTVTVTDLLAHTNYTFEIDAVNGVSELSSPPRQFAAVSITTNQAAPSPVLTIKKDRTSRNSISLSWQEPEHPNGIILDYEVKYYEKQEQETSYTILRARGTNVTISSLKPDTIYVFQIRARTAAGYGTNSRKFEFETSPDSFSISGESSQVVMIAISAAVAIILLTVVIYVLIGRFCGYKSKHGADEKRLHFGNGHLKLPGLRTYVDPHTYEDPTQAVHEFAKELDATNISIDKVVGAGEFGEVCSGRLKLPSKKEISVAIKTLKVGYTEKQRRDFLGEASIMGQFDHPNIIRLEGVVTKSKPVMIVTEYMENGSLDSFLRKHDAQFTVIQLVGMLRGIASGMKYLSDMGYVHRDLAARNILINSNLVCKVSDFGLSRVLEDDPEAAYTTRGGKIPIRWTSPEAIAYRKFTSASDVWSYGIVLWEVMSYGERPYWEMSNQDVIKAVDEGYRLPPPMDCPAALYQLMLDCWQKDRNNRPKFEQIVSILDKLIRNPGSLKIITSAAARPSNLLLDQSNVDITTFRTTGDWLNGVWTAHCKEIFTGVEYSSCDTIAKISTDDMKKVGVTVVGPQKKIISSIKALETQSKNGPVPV
Particulars: read-out: %-inhibition at 1 µmol/L, EPHA3.

The target of assay [3] is T2, panel of 255 wild-type kinases (Homo sapiens, UniProt P36888).
T2 sequence (P36888 27-993): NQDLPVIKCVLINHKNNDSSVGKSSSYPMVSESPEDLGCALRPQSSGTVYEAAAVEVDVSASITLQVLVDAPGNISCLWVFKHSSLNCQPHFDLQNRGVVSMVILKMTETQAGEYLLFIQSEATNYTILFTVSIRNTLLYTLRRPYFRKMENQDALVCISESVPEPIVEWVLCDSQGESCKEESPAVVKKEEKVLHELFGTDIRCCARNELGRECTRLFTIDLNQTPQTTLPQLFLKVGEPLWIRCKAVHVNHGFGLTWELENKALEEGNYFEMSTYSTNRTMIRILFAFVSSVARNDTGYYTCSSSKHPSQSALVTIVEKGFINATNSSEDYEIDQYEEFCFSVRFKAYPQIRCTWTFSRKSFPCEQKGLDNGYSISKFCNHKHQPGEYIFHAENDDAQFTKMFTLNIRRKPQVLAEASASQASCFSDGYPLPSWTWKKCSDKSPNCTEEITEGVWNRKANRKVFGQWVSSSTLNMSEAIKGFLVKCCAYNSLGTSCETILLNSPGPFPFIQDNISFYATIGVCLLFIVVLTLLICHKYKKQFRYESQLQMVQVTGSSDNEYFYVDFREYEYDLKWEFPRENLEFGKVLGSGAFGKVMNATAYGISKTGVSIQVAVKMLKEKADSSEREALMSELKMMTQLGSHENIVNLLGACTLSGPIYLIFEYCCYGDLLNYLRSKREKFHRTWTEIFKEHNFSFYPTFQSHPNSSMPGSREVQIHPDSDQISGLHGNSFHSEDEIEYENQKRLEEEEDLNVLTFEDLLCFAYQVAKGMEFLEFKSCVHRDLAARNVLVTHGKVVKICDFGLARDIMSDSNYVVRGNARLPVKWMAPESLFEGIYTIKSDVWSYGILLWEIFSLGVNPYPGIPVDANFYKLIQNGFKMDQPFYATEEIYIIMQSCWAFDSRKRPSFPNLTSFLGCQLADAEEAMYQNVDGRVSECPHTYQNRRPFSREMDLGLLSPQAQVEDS
Particulars: read-out: %-inhibition at 1 µmol/L, FLT3.

Assay [4] concerns the target T3, panel of 255 wild-type kinases (Homo sapiens, UniProt Q96PN8).
T3 sequence (Q96PN8 1-268): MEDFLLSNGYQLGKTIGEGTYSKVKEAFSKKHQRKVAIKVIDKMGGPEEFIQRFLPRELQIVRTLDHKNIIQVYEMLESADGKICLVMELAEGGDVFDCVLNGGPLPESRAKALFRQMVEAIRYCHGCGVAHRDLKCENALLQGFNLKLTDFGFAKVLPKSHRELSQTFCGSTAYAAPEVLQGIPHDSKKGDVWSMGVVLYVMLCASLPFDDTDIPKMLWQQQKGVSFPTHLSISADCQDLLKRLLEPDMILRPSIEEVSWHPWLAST
Particulars: read-out: %-inhibition at 1 µmol/L, TSSK3.

In assay [5] the target is panel of 255 wild-type kinases (Homo sapiens, UniProt P11362). Particulars: read-out: %-inhibition at 1 µmol/L, FGFR1.
In assay [6] the target is panel of 255 wild-type kinases (Homo sapiens, UniProt Q9Y2H1). Particulars: read-out: %-inhibition, NDR2.
Where [7] appears, read: MST3, 1 µmol/L single concentration.
Where [8] appears, read: kinase EPHA3, 1 µmol/L single concentration.
The mark [9] stands for this setting: kinase FLT3, 1 µmol/L single concentration.
Where [10] appears, read: kinase TSSK3, 1 µmol/L single concentration.
[11] abbreviates: kinase FGFR1, 1 µmol/L single concentration.
Setting [12] is: NDR2, 1 µmol/L single concentration.

Where two headings read alike, the source gives them in different places.

On to `Cn1cc(-c2cc3c(N4CCN(c5ncc([C@@](C)(N)c6ccc(F)cc6)cn5)CC4)ncnn3c2)cn1` [avapritinib], for which the inhibition at 1 µM in assay [1] (setting [7]) is 12%; in assay [2] (setting [8]) it was 22%; in assay [3] (setting [9]) it was 100%; in assay [4] (setting [10]), -4%; in assay [5] (setting [11]) it was 41%; in assay [6] (setting [12]), -2.84%.

On to `C[C@H](Nc1ncnc2nc[nH]c12)c1cc2cccc(Cl)c2c(=O)n1-c1ccccc1` [duvelisib], for which the inhibition at 1 µM was 0.418% in assay [1] (setting [7]); 0.475% in assay [2] (setting [8]); 10% in assay [3] (setting [9]); 3% in assay [4] (setting [10]); -0.103% in assay [5] (setting [11]); -0.151% in assay [6] (setting [12]).

Regarding `COc1cc2ncnc(Nc3ccc(F)c(Cl)c3)c2cc1NC(=O)/C=C/CN1CCCCC1` [dacomitinib], the inhibition at 1 µM in assay [1] (setting [7]) was 27%; in assay [2] (setting [8]), 11%; in assay [3] (setting [9]) it was 56%; in assay [4] (setting [10]) it was 3%; in assay [5] (setting [11]), 8%; in assay [6] (setting [12]) it was -1.58%.

For `CCN1CCN(c2ccc(Nc3cc(N(C)C(=O)Nc4c(Cl)c(OC)cc(OC)c4Cl)ncn3)cc2)CC1` [infigratinib], the inhibition at 1 µM in assay [1] (setting [7]) was 7%; in assay [2] (setting [8]) it was -0.311%; in assay [4] (setting [10]), -1.43%; in assay [5] (setting [11]), 100%; in assay [6] (setting [12]) it was -3.19%.

In the case of `Cn1cnc2c(F)c(Nc3ccc(Br)cc3Cl)c(C(=O)NOCCO)cc21` [selumetinib], the inhibition at 1 µM in assay [1] (setting [7]) is 3%; in assay [2] (setting [8]), -8%; in assay [3] (setting [9]), 52%; in assay [4] (setting [10]), -3%; in assay [5] (setting [11]) it was -1.41%; in assay [6] (setting [12]), -3.24%.

As for `CNC(=O)c1ccc(-c2cnc3ncc(Cc4ccc5ncccc5c4)n3n2)cc1F` [capmatinib], the inhibition at 1 µM in assay [1] is 0.296%; in assay [2], -9%; in assay [3], 50%; in assay [4], -7%; in assay [5], -0.662%; in assay [6], -5.51%.

`COC(=O)N[C@@H](C)CNc1nccc(-c2cn(C(C)C)nc2-c2cc(Cl)cc(NS(C)(=O)=O)c2F)n1` [encorafenib]: the inhibition at 1 µM is 7% in assay [1] (setting [7]); 4% in assay [2] (setting [8]); 9% in assay [3] (setting [9]); 4% in assay [4] (setting [10]); 4.27% in assay [5] (setting [11]); 5% in assay [6] (setting [12]).

With `Cc1cc(Nc2ncnc3ccc(NC4=NC(C)(C)CO4)cc23)ccc1Oc1ccn2ncnc2c1` [tucatinib], the inhibition at 1 µM is 10% in assay [1] (setting [7]); -10% in assay [2] (setting [8]); 48% in assay [3] (setting [9]); -0.029% in assay [4] (setting [10]); -3.24% in assay [5] (setting [11]); -0.504% in assay [6] (setting [12]).

With `C=CC(=O)N1CCC([C@@H]2CCNc3c(C(N)=O)c(-c4ccc(Oc5ccccc5)cc4)nn32)CC1` [zanubrutinib], the inhibition at 1 µM in assay [1] (setting [7]) was 0.0873%; in assay [2] (setting [8]), -0.0989%; in assay [3] (setting [9]), 22%; in assay [4] (setting [10]), 0.315%; in assay [5] (setting [11]), 4.53%; in assay [6] (setting [12]), 0.505%.

For `Cn1cnc2c(F)c(Nc3ccc(Br)cc3F)c(C(=O)NOCCO)cc21` [binimetinib], the inhibition at 1 µM in assay [1] (setting [7]) is 1.89%; in assay [2] (setting [8]), 0.248%; in assay [3] (setting [9]) it was 12%; in assay [4] (setting [10]), 2.62%; in assay [5] (setting [11]) it was 2%; in assay [6] (setting [12]), -1.45%.

Regarding `COc1ccc(CN2C3CC2CN(c2ccc(-c4cc(OCC(C)(C)O)cn5ncc(C#N)c45)cn2)C3)cn1` [selpercatinib], the inhibition at 1 µM was 6% in assay [1] (setting [7]); 49% in assay [2] (setting [8]); 99% in assay [3] (setting [9]); -4% in assay [4] (setting [10]); 97% in assay [5] (setting [11]); -4.53% in assay [6] (setting [12]).

For `CCN1C(=O)N(c2c(F)c(OC)cc(OC)c2F)Cc2cnc3[nH]c(CN4CCOCC4)cc3c21` [pemigatinib], the inhibition at 1 µM was 80% in assay [1] (setting [7]); 0.534% in assay [2] (setting [8]); 8% in assay [3] (setting [9]); -0.468% in assay [4] (setting [10]); -1.83% in assay [6] (setting [12]).

With `CN1CCN(c2ccc(C(=O)Nc3n[nH]c4ccc(Cc5cc(F)cc(F)c5)cc34)c(NC3CCOCC3)c2)CC1` [entrectinib], the inhibition at 1 µM was found to be 7.48% in assay [1] (setting [7]); 30% in assay [2] (setting [8]); 5.68% in assay [4] (setting [10]); 90% in assay [5] (setting [11]); 51% in assay [6] (setting [12]).

As to `CO[C@]1(C(=O)N[C@@H](C)c2ccc(-n3cc(F)cn3)nc2)CC[C@H](c2nc(C)cc(Nc3cc(C)[nH]n3)n2)CC1` [pralsetinib], the inhibition at 1 µM was 8% in assay [1] (setting [7]); 32% in assay [2] (setting [8]); 101% in assay [3] (setting [9]); -5% in assay [4] (setting [10]); 96% in assay [5] (setting [11]); 0.23% in assay [6] (setting [12]).

As to `C[C@H]1Oc2cc(cnc2N)-c2c(nn(C)c2C#N)CN(C)C(=O)c2ccc(F)cc21` [lorlatinib], the inhibition at 1 µM is -1.26% in assay [1] (setting [7]); 4.35% in assay [2] (setting [8]); 13% in assay [3] (setting [9]); 3.55% in assay [4] (setting [10]); 3.43% in assay [5] (setting [11]); 2.18% in assay [6] (setting [12]).

Turning to `CCn1c(=O)c(-c2cc(NC(=O)Nc3ccccc3)c(F)cc2Br)cc2cnc(NC)cc21` [ripretinib], the inhibition at 1 µM in assay [1] (setting [7]) was -4%; in assay [2] (setting [8]) it was 88%; in assay [3] (setting [9]), 46%; in assay [4] (setting [10]) it was -0.0717%; in assay [5] (setting [11]), 92%; in assay [6] (setting [12]), 2.69%.

For the origin of these results see paper PMC9516332 (Frontiers in Oncology, 2022).
